Some test systems named below: ACHN renal; HCT-116 colon; HL-60(TB) leukemia; HOP-62 NSCLC; HT29 colon; IGROV1 ovarian; KM12 colon; NCI-H226 lung; SK-MEL-5 melanoma; SNB-75 CNS; TK-10 renal; UACC-62 melanoma; MDA-MB-231 breast; HOP-92 NSCLC; MDA-N.
Experiment in all cases: DTP human tumour cell line panel, 48 h

SMILES strings stand for the structures.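 Cultured in 96-well plates, cells were exposed to test compound for 48 hours across five concentrations. TGI denotes the concentration required for complete inhibition of growth.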 A value given as a limit tells only on which side of the number the result lay.

`COc1cc(O)c2c(c1O)C(=O)c1cc(C)ncc1C2=O`: the concentration for total growth inhibition (TGI) with ACHN renal, with HCT-116 colon, in the test on HL-60(TB) leukemia, in the test on HOP-62 NSCLC, in the test on HT29 colon and in the test on IGROV1 ovarian was above 50 µM throughout. For the same compound, the total growth inhibition concentration (TGI) (as a rule, the concentration at which net growth stops) was above 50 µM with KM12 colon; above 50 µM in the test with NCI-H226 lung; 30 µM in the test with SK-MEL-5 melanoma; above 50 µM in the test with SNB-75 CNS; above 50 µM with TK-10 renal; above 50 µM in the test with UACC-62 melanoma.
`COC(=O)C1=C(OC(=O)/C(=C/c2c(F)cccc2F)c2ccccc2)C(C(=O)OC)[C@@]2(O)[C@@H](C(=O)OC)[C@H](C)C[C@@H]1[C@@H]2C(=O)OC` (stereo partly specified): the TGI in the test on ACHN renal, with HCT-116 colon, with HL-60(TB) leukemia, with HOP-62 NSCLC, in the test with HT29 colon and in the test with IGROV1 ovarian was above 100 µM each time. The TGI with KM12 colon, in the test on MDA-MB-231 breast, with NCI-H226 lung, in the test on SNB-75 CNS, in the test with TK-10 renal and with UACC-62 melanoma was above 100 µM in each case.
With `CCC(C)C(NC(=O)c1c2ccccc2nc2ccccc12)C(=O)O` (stereo unspecified), the total growth inhibition concentration (TGI) with ACHN renal, in the test with HCT-116 colon, with HOP-62 NSCLC, in the test with HOP-92 NSCLC, in the test with HT29 colon and with IGROV1 ovarian was above 100 µM each time. Besides, the TGI in the test on KM12 colon, with MDA-MB-231 breast, with NCI-H226 lung, in the test on SK-MEL-5 melanoma, in the test on SNB-75 CNS and with TK-10 renal was above 100 µM in each case. Further, in the test with UACC-62 melanoma, the TGI was above 100 µM.
With `ClCCCC1COc2ccccc2O1` (stereo unspecified), the TGI with ACHN renal, in the test with HCT-116 colon, with HL-60(TB) leukemia, in the test with HOP-62 NSCLC, in the test on HOP-92 NSCLC and with HT29 colon was above 100 µM throughout. For the same compound, the total growth inhibition concentration (TGI) in the test with IGROV1 ovarian, with MDA-N, in the test on NCI-H226 lung, in the test with SK-MEL-5 melanoma, in the test with SNB-75 CNS and in the test with TK-10 renal was above 100 µM in each case. Besides, the concentration for total growth inhibition (TGI) in the test with UACC-62 melanoma is above 100 µM.
For the compound `CCCC(=O)[O-].CCCC(=O)[O-].N.N.N.N.[Co+3].[O-][Cl+3]([O-])([O-])[O-]`, the concentration for total growth inhibition (TGI) in the test with ACHN renal, with HCT-116 colon, in the test with HL-60(TB) leukemia, in the test with HOP-62 NSCLC, in the test on HOP-92 NSCLC and with HT29 colon was above 100 µM in each case. Moreover, the total growth inhibition concentration (TGI) in the test on IGROV1 ovarian, in the test on KM12 colon, with SK-MEL-5 melanoma, in the test on SNB-75 CNS, in the test with TK-10 renal and in the test on UACC-62 melanoma was above 100 µM each time.
As to `Cc1ccc(C(O)/C(=N/N)c2nc3ccc([N+](=O)[O-])cc3[nH]c2=O)cc1` (stereo unspecified), the TGI in the test on ACHN renal, in the test with HCT-116 colon, with HL-60(TB) leukemia, in the test with HOP-62 NSCLC, in the test with HOP-92 NSCLC and with HT29 colon was above 100 µM throughout. In addition, the TGI with IGROV1 ovarian, with KM12 colon, in the test on NCI-H226 lung, with SK-MEL-5 melanoma, with SNB-75 CNS and in the test on TK-10 renal was above 100 µM throughout. Also, in the test on UACC-62 melanoma, the TGI is above 100 µM.
On to `O=c1nc(-c2ccccc2)scc1-c1ccccc1`, for which the concentration for total growth inhibition (TGI) in the test on ACHN renal, with HCT-116 colon, in the test with HL-60(TB) leukemia, in the test on HOP-62 NSCLC, in the test on HOP-92 NSCLC and in the test on HT29 colon was above 100 µM in each case. The TGI with IGROV1 ovarian, with KM12 colon, with NCI-H226 lung, in the test on SK-MEL-5 melanoma, in the test on SNB-75 CNS and in the test with TK-10 renal was above 100 µM each time. In the test on UACC-62 melanoma, this compound returned a concentration for total growth inhibition (TGI) above 100 µM.
Regarding `CCN1C(=O)C(N=[N+]=[N-])(c2ccccc2)C(=O)c2ccccc21` (stereo unspecified), the total growth inhibition concentration (TGI) in the test with ACHN renal, with HCT-116 colon, in the test on HL-60(TB) leukemia, with HOP-62 NSCLC, in the test with HOP-92 NSCLC and in the test on HT29 colon was above 100 µM throughout. Besides, the TGI in the test on IGROV1 ovarian, with KM12 colon, in the test on NCI-H226 lung, in the test with SK-MEL-5 melanoma, in the test with SNB-75 CNS and in the test with TK-10 renal was above 100 µM throughout. The compound further registered a total growth inhibition concentration (TGI) in the test with UACC-62 melanoma above 100 µM.
As for `CC(=O)O[C@]12CCCCC1C1(O)C(O)CCCC[C@H]12` (stereo partly specified), the concentration for total growth inhibition (TGI) in the test on ACHN renal, in the test on HCT-116 colon, with HL-60(TB) leukemia, in the test on HOP-62 NSCLC, in the test on HT29 colon and with KM12 colon was above 100 µM each time. Moreover, the TGI with NCI-H226 lung, with SK-MEL-5 melanoma, in the test on SNB-75 CNS, in the test with TK-10 renal and in the test with UACC-62 melanoma was above 100 µM each time.
Take `CC1=C2c3ccccc3N(S(=O)(=O)c3ccccc3)[C@H]2[C@H](C(=O)N2C3CC4CC[C@@]3(CS2(=O)=O)C4(C)C)CC1` (stereo partly specified): the concentration for total growth inhibition (TGI) in the test on ACHN renal was above 100 µM; in the test with HCT-116 colon it was above 100 µM; in the test on HL-60(TB) leukemia it was 21.9 µM; in the test on HOP-62 NSCLC, above 100 µM; with HOP-92 NSCLC, above 100 µM; in the test with HT29 colon, above 100 µM. In addition, the TGI is above 100 µM in the test with IGROV1 ovarian; above 100 µM in the test on KM12 colon; above 100 µM in the test with MDA-MB-231 breast; above 100 µM in the test with NCI-H226 lung; 91.3 µM with SK-MEL-5 melanoma; 19.6 µM in the test with SNB-75 CNS. For the same compound, the TGI in the test on TK-10 renal and in the test with UACC-62 melanoma was above 100 µM each time.

(Values after PubChem BioAssay (NCI).)
